Assay results as given in patent US4232035A, “Carbamate pesticidal compounds compositions and methods of use” (priority 1975, dated 1980).

How the values were obtained:
[1] = system: two-spotted mite (Tetranychus urticae Koch); assay: Mite Foliage Spray Test; type: in vivo; design: key: A: excellent control; B: partial control; C: no control; conditions: 500 parts per million foliage spray; six days
Method: (§1) Suspensions of the test compounds were prepared by dissolving one gram of compound in 50 milliliters of acetone in which had been dissolved 0.1 gram (10 percent of the weight of compound) of an alkylphenoxy polyethoxyethanol surfactant, as an emulsifying or dispersing agent. The resulting solution was mixed into 150 milliliters of water to give roughly 200 milliliters of a suspension containing the compound in finely divided form. The thus-prepared stock suspension contained 0.5 percent by weight of compound. The test concentrations in parts per million by weight employed in the tests described hereinbelow were obtained by appropriate dilutions of the stock suspension with water. The test procedures were as follows:
Adults and nymphal stages of the two-spotted mite (Tetranychus urticae Koch), reared on Tendergreen bean plants at 80±5 percent relative humidity, were the test organisms. Infested leaves from a stock culture were placed on the primary leaves of two bean plants six to eight inches in height, growing in a two-and-a-half inch clay pot. 150-200 Mites, a sufficient number for testing, transferred from the excised leaves to the fresh plants in a period of twenty four hours. Following the twenty four hour transfer period, the excised leaves were removed from the infested plants. The test compounds were formulated by diluting the stock suspension with water to give a suspension containing 500 parts of test compound per million parts of final formulation. The potted plants (one pot per compound) were placed on a revolving turntable and sprayed with 100-110 milliliters of test compound formulation by use of a DeVilbiss spray gun set at 40 psig. air pressure. This application, which lasted 25 seconds, was sufficient to wet the plants to run-off. As a control, 100-110 milliliters of a water solution containing acetone and emulsifier in the same concentrations as the test compound formulation, but containing no test compound, were also sprayed on infested plants. The sprayed plants were held at 80±5 percent relative humidity for six days, after which a mortality count of motile forms was made. Microscopic examination for motile forms was made on the leaves of the test plants. Any individual which was capable of locomotion upon prodding was considered living.

[2] = system: Mexican bean beetle (Epilachna varivestis, Muls.); assay: Mexican Bean Beetle Leaf Spray Test; type: in vivo; design: key: A: excellent control; B: partial control; C: no control; conditions: 500 parts per million leaf spray; fourth instar larvae; three days
Method: as §1
Fourth instar larvae of the Mexican bean beetle (Epilachna varivestis, Muls.), reared on Tendergreen bean plants at a temperature of 80°±5° F. and 50±5 percent relative humidity, were the test insects.
The test compounds were formulated by diluting the stock suspension with water to give a suspension containing 500 parts of test compound per million parts of final formulation. Potted Tendergreen bean plants of standard height and age were placed on a revolving turntable and sprayed with 100-110 milliliters of test compound formulation by use of a DeVilbiss spray gun set at 10 psig air pressure. This application, which lasted 25 seconds, was sufficient to wet plants to run-off. As a control, 100-110 milliliters of a water-acetone-emulsifier solution containing no test compound were also sprayed on infested plants. When dry, the paired leaves were separated and each was placed in a 9 centimeter Petri dish lined with moistened filter paper. Five randomly selected larvae were introduced into each dish, and the dishes were closed. The closed dishes were labeled and held at a temperature of 80°±5° F. for three days. Although the larvae could easily consume the leaf within 24 to 48 hours, no more food was added. Larvae which were unable to move the length of the body, even upon stimulation, were considered dead.

[3] = system: house flies (Musca domestica, L.); assay: Fly Bait Test; type: in vivo; design: key: A: excellent control; B: partial control; C: no control; conditions: 500 parts per million bait in sugar solution; twenty four hours
Method: as §1
Four to six day old adult house flies (Musca domestica, L.) reared according to the specifications of the Chemical Specialties Manufacturing Association (Blue Book, McNair-Dorland Co., N.Y. 1954; pages 243-244, 261) under controlled conditions of 80°±5° F. and 50±5 percent relative humidity, were the test insects. The flies were immobilized by anesthetizing with carbon dioxide and twenty five immobilized individuals, males and females, were transferred to a cage consisting of a standard food strainer about five inches in diameter which was inverted over a wrapping-paper-covered surface. The test compounds were formulated by diluting the stock suspension with a 10 percent (by weight) sugar solution to give a suspension containing 500 parts of test compound per million parts of final formulation, by weight. Ten milliliters of the test formulation were added to a souffle cup containing a one-inch square of an absorbent cotton pad. This bait cup was introduced and centered on the blotting paper under the food strainer prior to admitting the anesthetized flies. The caged flies were allowed to feed on the bait for twenty four hours, at a temperature of 80°±5° F. and the relative humidity of 50±5 percent.

[4] = system: root-knot nematode (Meloidogyne incognita var. acrita); assay: Nematode Test; type: in vivo; design: key: 1: severe galling; equal to untreated control; 2: moderate galling; 3: light galling; 4: very light galling; 5: no galling; conditions: 10 ml of 500 parts per million formulation per jar of soil; cucumber indicator crop, approximately three weeks
Method: as §1
Infective migratory larvae of the root-knot nematode, (Meloidogyne incognita var. acrita) were reared in the greenhouse on roots of Rutgers variety tomato plant. Infected tomato plants were removed from the culture and the roots were chopped very finely. A small amount of inoculum from the roots was added to pint Mason jars containing approximately 180 cc of soil. The jars containing the inoculum and soil were capped and incubated for one week at room temperature. During this period eggs of the nematode hatched and the larvae forms migrated into the soil.
The test compounds were formulated by diluting the stock suspension with water to give a suspension containing 500 parts of test compound per million parts of final formulation. 10 milliliters of the test formulation was added to each of two jars for each dosage treated. As a control 10 milliliters of a water-acetone-emulsifier solution containing no test compound was also added to jars containing nematode larvae. The jars were capped and the contents thoroughly mixed on a kale mill for five minutes. The jars remained capped at room temperature for a period of 48 hours and the contents were then transferred to 3 inch pots. Subsequently, the pots were seeded to cucumber as an indicator crop and placed in the green house where they were cared for in the normal fashion for growing potted cucumber for approximately three weeks. These cucumber plants were then removed from the pots, the soil washed from the roots and the amount of galling visually rated.

[5] = Peroral toxicity to mammals (rat); conditions: in vivo, po, mortality rate of 50 percent, read-out: A.O. Rat LD50
Method: Certain of these compositions were also evaluated to determine their peroral toxicity to mammals. The animal selected for this experiment was the rat. The test results obtained are expressed in terms of the number of milligrams of compositions per kilogram of weight of the animal required to achieve a mortality rate of 50 percent (LD50).

Structure (SMILES) | Mite, pesticidal activity rating [1] | M. Bean Beetle, pesticidal activity rating [2] | H. Fly, pesticidal activity rating [3] | Nematodes, nematocidal toxicity rating (galling) [4] | LD50 [5] [mg/kg]
CN(SSC(C)(C)C)C(=O)ON=C1SC(C)(C)C(=O)N1C | C | A | A | 1 | 299
CN(SSC(C)(C)C)C(=O)ON=C1SCCS1 | C | A | A | 5 | 5.6
